Measurements from patent publication US5292737A, “N,N'-bis(sulfonamido)-2-amino-4-iminonaphthalen-1-ones and N,N'-bis(amido)-2-amino-4-iminonaphthalen-1-ones” (Sphinx Pharmaceuticals Corporation, priority 1992, dated 1994).
Read-outs that look alike come from different tables or passages of the source.

How the values were obtained:
[1] = target: T1, PKC isoenzyme δ (Homo sapiens, UniProt Q05655); assay: Protein kinase C inhibition assay, PKC isoenzyme δ; type: biochemical
T1 construct: made in house; host or cells: baculovirus-insect cell expression system
Procedure: (§1) A protein kinase C (PKC) assay is designed to duplicate the in vivo conditions required for protein kinase C function. Therefore, pH, salt and cofactor concentrations are similar to physiologic levels. Either lysine rich histone H1 (H1) or Myelin basic protein (Mbp) are used in the assay as the phosphorylation acceptor-protein because they are readily available and serve as good substrates for protein kinase C. Enzyme was prepared from baculovirus-insect cell expression systems.
(§2) In the screening assay, phosphatidylserine (PS) and DAG were co-sonicated to form unilamellar and multilamellar vesicles. The concentration of lipids in the assay were suboptimal to maximize the detection potential of the assay for inhibitors or activators. Potential effector compounds were added to the assay in dimethylsulfoxide at four concentrations to give final inhibitor concentrations of 1, 10, 50, and 150 μM, respectively.
(§3) The assay was started with the addition of enzyme and stopped after 10 min by the addition of 25% trichloroacetic acid (TCA) and 1.0 mg/ml bovine serum albumin (BSA). The radioactive histone product was retained and washed on glass fiber filters that allow the unreacted P-ATP to pass through. The amount of phosphorylation was determined by measuring radioactivity with a scintillation counter. Controls were included in every assay to measure background activity in the absence of enzyme, activity in the absence of lipids, and the maximum enzyme activity with saturating levels of the activator lipids.
(§4) Results of the protein kinase C assay are shown in Table 4 in columns labeled α, βII, γ, δ, ε, and .zeta. which represent various PKC isoenzymes. Results are show as IC50, which is the concentration of test compound needed to inhibit 50% of the protein kinase C activity in controls.

[2] = test system: normal human epidermal keratinocyte (NHEK) cells; assay: Human Keratinocyte Inhibition (3H TdR Assay); type: cell-based; details: 24 h incubation, 3H-thymidine
Procedure: Proliferating normal human epidermal keratinocyte (NHEK) cells were obtained in the second passage and grown in keratinocyte growth medium, KGM (Clonetics, Inc.) at 37° C., 5% CO2. The cells were trypsinized (0.25%), centrifuged, counted with a hemocytometer, and seeded at a concentration of 5000 cells in 100 μl well in a 96-well microtiter plate.
After the cells were allowed to attach to the microtiter plate overnight, test agents were titrated to determine the dose response. This was done by adding each test agent dilution in quadruplicate to the plate at 2× final concentration in 100 μl to bring the total volume of each well to 200 μl. Culture media with no test agent added was used as a normal control. Duplicate sets of plates were established.
After twenty-four hours of incubation with test compounds 37° C. and 5% CO2, […] of 0.01 mCi/ml tritiated thymidine (New England Nuclear) was added to each well and allowed to incubate for another 4 hours under the same conditions.
Supernatant was aspirated and discarded and […] of 0.05% trypsin (Gibco) was added to each cell. Cells were checked microscopically to determine detachment from surfaces and then harvested onto glass filters. The filters were then placed in vials to which scintillant was added and counted for one minute each in a scintillation counter.
Determine mean cpm of wells containing test agent (n=4) or KGM control (n=16). Calculate % of control by the formula: [formula]
The IC50, or connection necessary to inhibit 50% of control, of each test agent was determined by plotting % control vs log concentration for each dilution and then linear forecasting the 50% control value onto the X axis on a Quatro Pro computer program. Only regression values with a correlation coefficient greater than 0.9 were considered acceptable.

[3] = target: T2, PKC isoenzyme γ (Homo sapiens, UniProt P05129); assay: Protein kinase C inhibition assay, PKC isoenzyme γ; type: biochemical
T2 construct: made in house; host or cells: baculovirus-insect cell expression system
Procedure: as §1, §2, §3, §4

[4] = target: cAMP dependent protein kinase (PKA); assay: cAMP Dependent Protein Kinase (PKA) Assay; type: biochemical; details: for IC50: catalytic subunit of PKA; for effect on PKA activity: result in words
Procedure: Compounds found to be inhibitors of protein kinase C were tested for inhibitory activity against cAMP dependent protein kinase (PKA). This enzyme, like protein kinase C, plays an important role in cell-cell communication and is activated by a second messenger, cAMP. Secondary screening against PKA is useful for ascertaining the selectivity of the compounds of the invention.
The catalytic subunit of PKA (Sigma Chemical Company, St. Louis, Mo.) was mixed with buffer before addition of the inhibitor in dimethylsulfoxide (DMSO). Potential inhibitor compounds were added to the assay in dimethylsulfoxide at two concentrations to give final inhibitor concentrations of 30 and 150 μM, respectively. The assay was started by the addition of ^32 P-ATP and the reaction was allowed to proceed for 10 min before stopping with 25% trichloroacetic acid (TCA) and 1.0 mg/ml bovine serum albumin (BSA). Phosphorylated protein was then isolated by filtration and the radioactivity was counted by a beta scintillation counter.

T1 sequence (Q05655 whole entry): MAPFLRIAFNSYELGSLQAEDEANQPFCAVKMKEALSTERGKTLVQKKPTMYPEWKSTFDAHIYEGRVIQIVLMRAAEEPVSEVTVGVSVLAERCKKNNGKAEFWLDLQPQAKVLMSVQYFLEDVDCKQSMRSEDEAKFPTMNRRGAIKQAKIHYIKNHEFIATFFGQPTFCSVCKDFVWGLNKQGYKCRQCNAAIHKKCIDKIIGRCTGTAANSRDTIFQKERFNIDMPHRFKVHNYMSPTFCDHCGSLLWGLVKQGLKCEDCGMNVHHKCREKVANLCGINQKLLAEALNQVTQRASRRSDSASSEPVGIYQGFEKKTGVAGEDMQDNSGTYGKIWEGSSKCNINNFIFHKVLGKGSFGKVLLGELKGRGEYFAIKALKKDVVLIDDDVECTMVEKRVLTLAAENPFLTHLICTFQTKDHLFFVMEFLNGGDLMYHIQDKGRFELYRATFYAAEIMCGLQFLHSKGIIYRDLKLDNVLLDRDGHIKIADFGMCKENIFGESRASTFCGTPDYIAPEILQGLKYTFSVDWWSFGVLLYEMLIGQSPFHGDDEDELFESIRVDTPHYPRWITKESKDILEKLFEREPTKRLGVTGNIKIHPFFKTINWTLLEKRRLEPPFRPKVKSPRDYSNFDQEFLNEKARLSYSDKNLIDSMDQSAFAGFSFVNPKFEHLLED

Structure (SMILES)	IC50 ([1]; IC50 PKC δ) [µM]	IC50 ([2]; Homo sapiens) [µM]	IC50 ([3]; IC50 PKC γ) [µM]	IC50 [4] [µM]	effect on PKA activity [4]	IC50 ([1]; read-out: IC50 PKC δ) [µM]	IC50 ([3]; read-out: IC50 PKC γ) [µM]	IC50 [2] [µM]
O=C1C(Nc2ccc(S(=O)(=O)NCCNc3ccc([N+](=O)[O-])cn3)cc2)=CC(=Nc2ccc(S(=O)(=O)NCCNc3ccc([N+](=O)[O-])cn3)cc2)c2ccccc21 [Compound 3ac]	147	0.08	22	> 150	did not effect on PKA activity	–	–	–
Cc1cc(C)nc(NS(=O)(=O)c2cccc(N=C3C=C(Nc4cccc(S(=O)(=O)Nc5cc(C)cc(C)n5)c4)C(=O)c4ccccc43)c2)c1 [Compound 3ae]	–	< 0.39	–	> 150	did not effect on PKA activity	85	16	–
COc1cc(NS(=O)(=O)c2ccc(N=C3C=C(Nc4ccc(S(=O)(=O)Nc5cc(OC)cc(OC)c5)cc4)C(=O)c4ccccc43)cc2)cc(OC)c1 [Compound 3af]	–	< 0.39	–	62	–	> 150	40	–
Cc1cc(C)nc(NS(=O)(=O)c2cc(N=C3C=C(Nc4ccc(C)c(S(=O)(=O)Nc5cc(C)cc(C)n5)c4)C(=O)c4ccccc43)ccc2C)c1 [Compound 3ag]	–	–	–	> 150	did not effect on PKA activity	30	20	–
Cc1cc(C)nc(NC(=O)c2ccc(N=C3C=C(Nc4ccc(C(=O)Nc5cc(C)cc(C)n5)cc4)C(=O)c4ccccc43)cc2)c1 [Compound 3ah]	–	1.4	–	–	–	> 150	70	–
Cc1cc(C)nc(NC(=O)c2ccc(N=C3C=C(Nc4ccc(C(=O)Nc5nc(C)cc(C)n5)cc4)C(=O)c4ccccc43)cc2)n1 [Compound 3ai]	–	0.16	–	> 150	did not effect on PKA activity	> 150	9	–
Cc1noc(NS(=O)(=O)c2ccc(N=C3C=C(Nc4ccc(S(=O)(=O)Nc5onc(C)c5C)cc4)C(=O)c4ccccc43)cc2)c1C [Compound 3b]	–	11.6	–	> 150	did not effect on PKA activity	31	25	–
Cc1cc(C)nc(NS(=O)(=O)c2ccc(N=C3C=C(Nc4ccc(S(=O)(=O)Nc5nc(C)cc(C)n5)cc4)C(=O)c4ccccc43)cc2)n1 [Compound 3c]	–	–	–	> 150	did not effect on PKA activity	72	21	0.52
Cc1cc(NS(=O)(=O)c2ccc(N=C3C=C(Nc4ccc(S(=O)(=O)Nc5cc(C)nc(C)n5)cc4)C(=O)c4ccccc43)cc2)nc(C)n1 [Compound 3d]	–	2	–	> 150	did not effect on PKA activity	95	36	–
Cc1nnc(NS(=O)(=O)c2ccc(N=C3C=C(Nc4ccc(S(=O)(=O)Nc5nnc(C)s5)cc4)C(=O)c4ccccc43)cc2)s1 [Compound 3e]	–	8.7	–	55	–	43	22	–
Cc1ccnc(NS(=O)(=O)c2ccc(N=C3C=C(Nc4ccc(S(=O)(=O)Nc5nccc(C)n5)cc4)C(=O)c4ccccc43)cc2)n1 [Compound 3f]	–	1.2	–	48	–	86	29	–
COc1cc(NS(=O)(=O)c2ccc(N=C3C=C(Nc4ccc(S(=O)(=O)Nc5cc(OC)nc(OC)n5)cc4)C(=O)c4ccccc43)cc2)nc(OC)n1 [Compound 3g]	–	–	–	> 150	did not effect on PKA activity	40	14	0.6
COc1cnc(NS(=O)(=O)c2ccc(N=C3C=C(Nc4ccc(S(=O)(=O)Nc5ncc(OC)cn5)cc4)C(=O)c4ccccc43)cc2)nc1 [Compound 3h]	–	0.9	–	> 150	did not effect on PKA activity	58	55	–
O=C1C(Nc2ccc(S(=O)(=O)Nc3ccccn3)cc2)=CC(=Nc2ccc(S(=O)(=O)Nc3ccccn3)cc2)c2ccccc21 [Compound 3i]	–	–	–	> 150	did not effect on PKA activity	37	15	0.61
COc1ccc(NS(=O)(=O)c2ccc(N=C3C=C(Nc4ccc(S(=O)(=O)Nc5ccc(OC)nn5)cc4)C(=O)c4ccccc43)cc2)nn1 [Compound 3j]	–	–	–	> 150	did not effect on PKA activity	17	15	0.34
O=C1C(Nc2ccc(S(=O)(=O)Nc3ccc(Cl)nn3)cc2)=CC(=Nc2ccc(S(=O)(=O)Nc3ccc(Cl)nn3)cc2)c2ccccc21 [Compound 3l]	–	4.3	–	98	–	78	7	–
O=C1C(Nc2ccc(S(=O)(=O)Nc3cnc4ccccc4n3)cc2)=CC(=Nc2ccc(S(=O)(=O)Nc3cnc4ccccc4n3)cc2)c2ccccc21 [Compound 3m]	–	0.4	–	82	–	122	14	–
O=C1C(Nc2ccc(S(=O)(=O)NCc3ccccn3)cc2)=CC(=Nc2ccc(S(=O)(=O)NCc3ccccn3)cc2)c2ccccc21 [Compound 3n]	–	–	–	> 150	did not effect on PKA activity	> 150	24	1.1
Cc1cc(NS(=O)(=O)c2ccc(N=C3C=C(Nc4ccc(S(=O)(=O)Nc5cc(C)on5)cc4)C(=O)c4ccccc43)cc2)no1 [Compound 6a]	–	–	–	157	–	34	–	1.2
COc1cc(NS(=O)(=O)c2ccc(N=C3C=C(Nc4ccc(S(=O)(=O)Nc5cc(OC)cc(OC)c5)cc4)C(=O)c4ccccc43)cc2)cc(OC)c1 [Compound 6af]	–	–	–	–	–	–	60	–
O=C1C(Nc2ccc(S(=O)(=O)NCc3ccccn3)cc2)=CC(=Nc2ccc(S(=O)(=O)NCc3ccccn3)cc2)c2ccccc21 [Compound 6n]	–	–	–	> 150	did not effect on PKA activity	–	44	0.5
